Measurements reported in patent US20060040957A1, “BICYCLIC PYRIMIDINE MATRIX METALLOPROTEINASE INHIBITORS” (priority 2001, published 2006).
Where a name gives a salt, the structure may show the parent alone. Read-outs that look alike come from different tables or passages of the source.

Assays:
Type in all cases: biochemical
[1] = biological target: MMP-13CD (catalytic domain of collagenase 3) (Homo sapiens, UniProt P45452); experiment: Thiopeptolide substrate hydrolysis assay, MMP-13CD
From the text: (§1) Thiopeptolide substrates show virtually no decomposition or hydrolysis at or below neutral pH in the absence of a matrix metalloproteinase enzyme.

[2] = biological target: T1, MMP-2FL (full length Gelatinase A) (Homo sapiens, UniProt P08253); experiment: Thiopeptolide substrate hydrolysis assay, MMP-2FL; settings: HEPES pH 7.0, 22° C., read-out: IC50 (μM) Versus Certain MMPs: MMP-02 FL
T1 sequence (P08253 110-660): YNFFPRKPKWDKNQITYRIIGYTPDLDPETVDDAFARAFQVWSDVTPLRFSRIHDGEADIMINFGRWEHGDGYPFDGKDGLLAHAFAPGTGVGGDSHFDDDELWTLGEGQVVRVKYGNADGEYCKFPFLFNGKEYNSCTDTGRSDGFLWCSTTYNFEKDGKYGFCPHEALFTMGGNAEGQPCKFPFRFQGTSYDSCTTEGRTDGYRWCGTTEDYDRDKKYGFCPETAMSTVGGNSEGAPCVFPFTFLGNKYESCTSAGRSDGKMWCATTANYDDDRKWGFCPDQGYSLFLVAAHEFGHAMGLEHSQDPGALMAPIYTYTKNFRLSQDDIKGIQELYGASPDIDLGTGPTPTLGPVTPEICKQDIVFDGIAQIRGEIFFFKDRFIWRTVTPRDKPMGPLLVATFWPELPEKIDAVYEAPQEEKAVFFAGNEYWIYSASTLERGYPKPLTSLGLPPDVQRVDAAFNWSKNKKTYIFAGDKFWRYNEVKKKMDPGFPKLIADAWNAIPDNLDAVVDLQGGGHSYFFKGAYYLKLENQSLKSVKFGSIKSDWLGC
From the text: (§2) The invention compounds of Formula I have been evaluated in standard assays for their ability to inhibit the catalytic activity of various MMP enzymes.
as §1
(§3) Several representative compounds have been evaluated for their ability to inhibit various matrix metalloproteinase enzymes.

[3] = biological target: T2, MMP-7FL (full length matrilysin) (Homo sapiens, UniProt P09237); experiment: Thiopeptolide substrate hydrolysis assay, MMP-7FL; settings: HEPES pH 7.0, 22° C., read-out: IC50 (μM) Versus Certain MMPs: MMP-07 FL
T2 sequence (P09237 95-267): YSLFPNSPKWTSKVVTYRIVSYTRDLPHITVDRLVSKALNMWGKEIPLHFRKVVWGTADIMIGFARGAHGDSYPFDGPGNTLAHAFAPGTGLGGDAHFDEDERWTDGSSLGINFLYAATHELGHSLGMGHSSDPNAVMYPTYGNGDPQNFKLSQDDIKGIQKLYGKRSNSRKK
From the text: as §2, §1, §3

[4] = biological target: MMP-9FL (full length Gelatinase B) (Homo sapiens, UniProt P14780); experiment: Thiopeptolide substrate hydrolysis assay, MMP-9FL; settings: HEPES pH 7.0, 22° C., read-out: IC50 (μM) Versus Certain MMPs: MMP-09 FL
Sequence of MMP-9FL (full length Gelatinase B) (P14780 94-707, species assumed): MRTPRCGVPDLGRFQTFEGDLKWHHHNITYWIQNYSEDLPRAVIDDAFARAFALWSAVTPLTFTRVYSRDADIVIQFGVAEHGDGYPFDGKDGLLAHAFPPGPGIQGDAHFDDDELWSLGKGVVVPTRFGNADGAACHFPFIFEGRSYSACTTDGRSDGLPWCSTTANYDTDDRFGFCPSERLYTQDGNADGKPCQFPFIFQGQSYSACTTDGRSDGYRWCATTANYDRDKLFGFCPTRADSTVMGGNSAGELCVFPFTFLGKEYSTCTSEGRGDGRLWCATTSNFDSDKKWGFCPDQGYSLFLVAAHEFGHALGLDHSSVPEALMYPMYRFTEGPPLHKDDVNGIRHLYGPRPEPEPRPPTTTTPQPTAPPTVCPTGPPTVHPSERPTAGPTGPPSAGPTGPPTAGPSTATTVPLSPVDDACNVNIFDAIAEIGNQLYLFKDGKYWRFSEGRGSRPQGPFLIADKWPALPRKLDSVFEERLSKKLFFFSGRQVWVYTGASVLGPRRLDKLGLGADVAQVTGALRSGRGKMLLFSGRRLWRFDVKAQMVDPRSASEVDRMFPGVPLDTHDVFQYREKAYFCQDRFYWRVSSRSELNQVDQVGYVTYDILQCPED
From the text: as §2, §1, §3

[5] = biological target: MMP-14CD (catalytic domain of MMP-14) (Homo sapiens, UniProt P50281); experiment: Thiopeptolide substrate hydrolysis assay, MMP-14CD; settings: HEPES pH 7.0, 22° C., read-out: IC50 (μM) Versus Certain MMPs: MMP-14 CD
From the text: as §2, §1, §3

[6] = thiopeptolide substrate, HEPES pH 7.0, 22° C., read-out: IC50 (μM) Versus Certain MMPs: MMP-13 CD
[7] = IC50 (μM) Versus Certain MMPs: MMP-13 CD, thiopeptolide substrate, HEPES pH 7.0, 22° C.
[8] = thiopeptolide substrate, HEPES pH 7.0, 22° C.

IC50 [1, 6] | SMILES | other results
54 µM | Cc1c(=O)n(Cc2ccccc2)c(=O)n2cc(C(=O)NCC3CCCO3)sc12 (centres unmarked) [Example 110, 6-Benzyl-8-methyl-5,7-dioxo-6,7-dihydro-5H-thiazolo[3,2-c]pyrimidine-2-carboxylic acid(tetrahydro-furan-2-ylmethyl)-amide] | 
10 µM | Cc1c(=O)n(CCNC(=O)c2ccccc2)c(=O)n2cc(C(=O)NCc3ccc(F)cc3)sc12 [Example 100, 6-(2-Benzoylamino-ethyl)-8-methyl-5,7-dioxo-6,7-dihydro-5H-thiazolo[3,2-c]pyrimidine-2-carboxylic acid 4-fluoro-benzylamide] | 
> 30 µM | CCC(CC)n1c(=O)c(C)c2sc(C(=O)NCc3ccc(F)cc3)cn2c1=O [Example 94, 6-(1-Ethyl-propyl)-8-methyl-5,7-dioxo-6,7-dihydro-5H-thiazolo[3,2-c]pyrimidine-2-carboxylic acid 4-fluoro-benzylamide] | 
2.6 µM | Cc1c(=O)n(CCS(=O)(=O)c2ccc(Cl)cc2)c(=O)n2cc(C(=O)NCc3ccncc3)sc12 [Example 83, 6-[2-(4-Chloro-benzenesulfonyl)-ethyl]-8-methyl-5,7-dioxo-6,7-dihydro-5H-thiazolo[3,2-c]pyrimidine-2-carboxylic acid(pyridin-4-ylmethyl)-amide hydrochloride] | 
0.35 µM | Cc1c(=O)n(CCC(=O)c2ccccc2)c(=O)n2cc(C(=O)NCc3ccc(F)cc3)sc12 [Example 86, 8-Methyl-5,7-dioxo-6-(3-oxo-3-phenyl-propyl)-6,7-dihydro-5H-thiazolo[3,2-c]pyrimidine-2-carboxylic acid 4-fluoro-benzylamide] | 
> 100 µM | Cc1c(=O)n(Cc2ccc(S(=O)(=O)N3CCOCC3)cc2)c(=O)n2ccsc12 [Example 108, 8-Methyl-6-[4-(morpholine-4-sulfonyl)-benzyl]-thiazolo[3,2-c]pyrimidine-5,7-dione] | 
2.1 µM | Cc1c(=O)n(C(C)c2ccccc2)c(=O)n2cc(C(=O)NCc3ccc(F)cc3)sc12 (centres unmarked) [Example 87, 8-Methyl-5,7-dioxo-6-(1-phenyl-ethyl)-6,7-dihydro-5H-thiazolo[3,2-c]pyrimidine-2-carboxylic acid 4-fluoro-benzylamide] | 
14 µM | Cc1c(=O)n(Cc2nn[nH]n2)c(=O)n2cc(C(=O)NCc3ccc(F)cc3)sc12 [Example 66, 8-Methyl-5,7-dioxo-6-(2H-tetrazol-5-ylmethyl)-6,7-dihydro-5H-thiazolo[3,2-c]pyrimidine-2-carboxylic acid 4-fluoro-benzylamide] | 

Further lines, the molecule ahead of its results:

SMILES | IC50 [1, 6] | other results
O=c1cc2sccn2c(=O)n1Cc1ccncc1 [6-(4-Pyridylmethyl)-thiazolo[3,2-c]pyrimidine-5,7,dione] | > 100 µM | 
Cc1c(=O)n(Cc2ccccc2)c(=O)n2cc(C(=O)NCc3cnn(C)c3)sc12 [Example 39, 6-Benzyl-8-methyl-5,7-dioxo-6,7-dihydro-5H-thiazolo[3,2-c]pyrimidine-2-carboxylic acid(1-methyl-1H-pyrazol-4-ylmethyl)-amide] |  | IC50 [1, 7]: 2.3 µM
Cc1c(=O)n(Cc2ccccc2)c(=O)n2cc(C(=O)NCC3CCNCC3)sc12 [Example 45, 6-Benzyl-8-methyl-5,7-dioxo-6,7-dihydro-5H-thiazolo[3,2-c]pyrimidine-2-carboxylic acid(piperidin-4-ylmethyl)-amide hydrochloride] | > 100 µM | 
COC(=O)c1cn2c(=O)n(Cc3ccccc3)c(=O)c(C)c2s1 [Example 33a, 6-Benzyl-8-methyl-5,7-dioxo-6,7-dihydro-5H-thiazolo[3,2-c]pyrimidine-2-carboxylic acid methyl ester] |  | IC50 (μM) Versus Certain MMPs: MMP-13 CD [1, 8]: none
Cc1c(=O)n(Cc2ccccc2)c(=O)n2cc(C(=O)NCc3cn4ccsc4n3)sc12 [Example 38, 6-Benzyl-8-methyl-5,7-dioxo-6,7-dihydro-5H-thiazolo[3,2-c]pyrimidine-2-carboxylic acid(imidazo[2,1-b]thiazol-6-ylmethyl)-amide] |  | IC50 [1, 7]: 25 µM
Cc1c(=O)n(Cc2ccccc2)c(=O)n2cc(C(=O)O)sc12 [Example 33, 6-Benzyl-8-methyl-5,7-dioxo-6,7-dihydro-5H-thiazolo[3,2-c]pyrimidine-2-carboxylic acid] | > 100 µM | 
C#CCNC(=O)c1cn2c(=O)n(Cc3ccccc3)c(=O)c(C)c2s1 [Example 40, 6-Benzyl-8-methyl-5,7-dioxo-6,7-dihydro-5H-thiazolo[3,2-c]pyrimidine-2-carboxylic acid prop-2-ynylamide] | > 100 µM | 
COc1cc(CNC(=O)c2cn3c(=O)n(Cc4ccc(F)c(F)c4)c(=O)c(C)c3s2)ccn1 [Example 114, 6-(3,4-Fluoro-benzyl)-8-methyl-5,7-dioxo-6,7-dihydro-5H-thiazolo[3,2-c]pyrimidine-2-carboxylic acid(2-methoxy-pyridin-4-ylmethyl)-amide hydrochloride] |  | IC50 ([1]; IC50 inhibition of MMP-13CD, running text after Table 1): 0.0155 µM
Cc1c(=O)n(Cc2ccccc2)c(=O)n2cc(C(=O)NCc3cscn3)sc12 [Example 35, 6-Benzyl-8-methyl-5,7-dioxo-6,7-dihydro-5H-thiazolo[3,2-c]pyrimidine-2-carboxylic acid(thiazol-4-ylmethyl)-amide hydrochloride] | > 100 µM | 
Cc1c(=O)n(Cc2ccccc2)c(=O)n2cc(C(=O)NCc3ccccn3)sc12 [Example 47, 6-Benzyl-8-methyl-5,7-dioxo-6,7-dihydro-5H-thiazolo[3,2-c]pyrimidine-2-carboxylic acid(pyridin-2-ylmethyl)-amide hydrochloride] |  | IC50 [1, 7]: 9.9 µM
C=C(C)Cn1c(=O)c(C)c2sc(C(=O)NCc3ccc(F)cc3)cn2c1=O [Example 93, 8-Methyl-6-(2-methyl-allyl)-5,7-dioxo-6,7-dihydro-5H-thiazolo[3,2-c]pyrimidine-2-carboxylic acid 4-fluoro-benzylamide] |  | IC50 [1, 7]: 1.55 µM
Cc1cccc(CNC(=O)c2cn3c(=O)n(Cc4ccccc4)c(=O)c(C)c3s2)n1 [Example 41, 6-Benzyl-8-methyl-5,7-dioxo-6,7-dihydro-5H-thiazolo[3,2-c]pyrimidine-2-carboxylic acid(6-methyl-pyridin-2-ylmethyl)-amide] |  | IC50 [1, 7]: 6.2 µM
O=C(OCc1ccccc1)C1CSc2cc(=O)n(Cc3ccccc3)c(=O)n21 (centres unmarked) [Example 20, 6-Benzyl-5,7-dioxo-2,3,6,7-tetrahydro-5H-thiazolo[3,2-c]pyrimidine-3-carboxylic acid benzyl ester] |  | IC50 (μM) Versus Certain MMPs: MMP-13 CD [1, 8]: none
Cc1c(=O)n(Cc2ccccc2)c(=O)n2cc(C(=O)NCc3ccc(Cl)cc3Cl)sc12 [Example 27, 6-Benzyl-8-methyl-5,7-dioxo-6,7-dihydro-5H-thiazolo[3,2-c]pyrimidine-2-carboxylic acid 2,4-dichloro-benzylamide] | > 30 µM | 
Cc1c(=O)n(Cc2ccccc2)c(=O)n2cc(C(O)C#Cc3ccccc3)sc12 (centres unmarked) [Example 31, 6-Benzyl-2-(1-hydroxy-3-phenyl-prop-2-ynyl)-8-methyl-thiazolo[3,2-c]pyrimidine-5,7-dione] | > 30 µM | 
COC(=O)c1sc2cc(=O)n(Cc3ccccc3)c(=O)n2c1C [Example 26, 6-Benzyl-3-methyl-5,7-dioxo-6,7-dihydro-5H-thiazolo[3,2-c]pyrimidine-2-carboxylic acid methyl ester] | > 100 µM | 
Cc1ccc(CNC(=O)c2cn3c(=O)n(Cc4ccccc4)c(=O)c(C)c3s2)cc1 [Example 48, 6-Benzyl-8-methyl-5,7-dioxo-6,7-dihydro-5H-thiazolo[3,2-c]pyrimidine-2-carboxylic acid 4-methyl-benzylamide] |  | IC50 [2]: > 30 µM; IC50 [3]: 28 µM; IC50 [4]: > 100 µM; IC50 [5]: > 100 µM
Cc1c(=O)n(Cc2ccc(Cl)cc2)c(=O)n2cc(C(=O)NCc3ccncc3)sc12 [Example 72, 6-(4-Chloro-benzyl)-8-methyl-5,7-dioxo-6,7-dihydro-5H-thiazolo[3,2-c]pyrimidine-2-carboxylic acid(pyridin-4-ylmethyl)-amide] |  | IC50 [2]: > 30 µM; IC50 [3]: > 30 µM; IC50 [4]: > 30 µM; IC50 [5]: > 30 µM
